The subject of data set [1] is A549R (cisplatin-resistant A549). The data set is described as follows: MTT cytotoxicity assay. Conditions: for IC50: MTT, 48 h incubation, mean ± SD; for fold greater ability to kill A549R cells than cisplatin: ratio of IC50 values, cisplatin / complex. It is filed as cell-based, human. The procedure: The anticancer activities of RuRe-1 and RuRe-2 against four cancer cell lines: HeLa (human cervical cancer cells), HepG2 (human hepatocellular carcinoma), A549 (human lung cancer cells), A549R (cisplatin-resistant A549) and one normal cell line LO2 (human normal liver cells) were determined by 3-(4,5-dimethylthiazole)-2,5-diphenyltetraazolium bromide (MTT) assay, while the mononuclear complexes Ru-1, Ru-2, Re-1 and cisplatin were selected as controls. […] And the in vitro antiproliferative efficacies of the compounds against HeLa cells were in the following order: RuRe-2 > RuRe-1 > Re-1 > cisplatin > Ru-1 > Ru-2. […] The anticancer activity of the mononuclear rhenium complex Re-1 was between 5.6 μM and 8.0 μM, which contributed the most to the antitumor activities of the heteronuclear Ru(II)-Re(Ⅰ) metal complexes.
Cell lines and culture conditions. HeLa, HepG2, A549, A549R and LO2 cells were purchased from Nanjing KeyGen Biotech., and cultured in DMEM or RPMI 1640 complete medium at 37 ℃ with 5% CO2 atmosphere.
In vitro cytotoxicity assay. The anti-tumor activity of mononuclear complexes Ru-1, Ru-2, Re-1 and heteronuclear RuRe-1 and RuRe-2 were determined by MTT (5 mg/mL) assay. Cells were placed in 96-well plates and cultured for 24 h at 37 ℃ in a 5% CO2 incubator. After replacing the culture medium with fresh medium containing RuRe-1 or RuRe-2 at the indicated concentration, cells were cultured for 48 h. 20 μL MTT was added to each well 4 h before the end of the incubation. Subsequently, the liquid in the cell wells was poured out and 150 μL/well DMSO was added to dissolve the MTT-formazan crystals. The absorbance of living cells at 570 nm was detected.
Background: Tetrazolium dyes change colour on reduction, which living cells bring about.

Data set [2] in a line: Stability in PBS by UV-Vis spectroscopy. It is filed as physicochemical. Conditions: 10 μM, PBS, 0, 24 and 48 h. The procedure:
(§1) The stabilities of RuRe-1 and RuRe-2 in PBS and human serum albumin (HSA) were tested through UV–Vis spectroscopy.
(§2) Supplementary Figure 12. UV-Vis absorption spectra of RuRe-1 (10 μM), RuRe-2 (10 μM), Ru-1 (10 μM), Ru-2 (10 μM) and Re-1 (10 μM) in PBS (A) and HSA (B) solution collected at 0, 24, and 48 h, respectively.

Data set [3] can be described thus: Stability in human serum albumin (HSA) solution by UV-Vis spectroscopy. It is filed as physicochemical. The settings on record: 10 μM, HSA solution, 0, 24 and 48 h. As for the experimental part: as §1, §2
In the next data set the test system is HeLa cells. Kind of data set: Annexin V-FITC/PI double-staining apoptosis assay by flow cytometry. It is filed as cell-based, human. Conditions: 24 h, control 1.81%. An excerpt:
The ability of RuRe-1 and RuRe-2 to induce apoptosis in HeLa cells was further verified using Annexin V-FITC/PI (FITC: fluorescein isothiocyanate; PI: propidium iodide) double-staining. In the early stage of apoptosis, the surface of the cell membrane is […], at which point the phosphatidylserine on the surface of the apoptotic cell flips from the inner cell membrane to the outer cell membrane, where it can be labelled by Annexin V ([Jan and Chaudhry, 2019]). The membrane permeability of PI is poor and thus only necrotic cells can be labelled ([Zec et al., 2014]).
FIGURE 3 RuRe-1 and RuRe-2 induced HeLa cells apoptosis measured by flow cytometry with Annexin V/PI staining. The incubation time of the compounds was 24 h. […]
(A flow cytometer gives signals particle by particle.)

As usually defined, the IC50 is the concentration at which inhibition is half-maximal.

Consider `F[P-](F)(F)(F)(F)F.F[P-](F)(F)(F)(F)F.F[P-](F)(F)(F)(F)F.[C-]#[O+].[C-]#[O+].[C-]#[O+].[Re+].[Ru+2].c1ccc(-c2ccccn2)nc1.c1ccc(-c2ccccn2)nc1.c1ccc(-c2ccnc3c2ccc2c(-c4ccccc4)ccnc23)cc1.c1cnc2c(c1)c1nc(-c3ccncc3)[nH]c1c1cccnc12` [RuRe-1, [Ru(bpy)2LRe(CO)3(DIP)](PF6)3], for which, in data set [1], inhibition was half-maximal at 10.4 ± 1.2 µM (IC50) and the “fold greater ability to kill A549R cells than cisplatin” value is recorded as “approximately 8.7 fold”. Besides, the “stability in PBS (UV-Vis spectral characteristics and absorption peaks)” value in data set [2] is “no significant change”. Also, in data set [3], the “stability in HSA (UV-Vis spectral characteristics and absorption peaks)” value is reported as “no significant change”. In the data set on HeLa cells (12.4 μM), the “percentage of apoptotic cells (early apoptotic + late apoptotic)” value came to 22.38%.

Regarding `F[P-](F)(F)(F)(F)F.F[P-](F)(F)(F)(F)F.F[P-](F)(F)(F)(F)F.[C-]#[O+].[C-]#[O+].[C-]#[O+].[Re+].[Ru+2].c1ccc(-c2ccnc3c2ccc2c(-c4ccccc4)ccnc23)cc1.c1cnc2c(c1)c1nc(-c3ccncc3)[nH]c1c1cccnc12.c1cnc2c(c1)ccc1cccnc12.c1cnc2c(c1)ccc1cccnc12` [RuRe-2, [Ru(phen)2LRe(CO)3(DIP)](PF6)3], in data set [1], the midpoint of inhibition, the IC50, lay at 16.7 ± 0.8 µM and the “fold greater ability to kill A549R cells than cisplatin” value is recorded as roughly 5.4 fold. In addition, in data set [2], the “stability in PBS (UV-Vis spectral characteristics and absorption peaks)” value is listed as “no significant change”. The “stability in HSA (UV-Vis spectral characteristics and absorption peaks)” value in data set [3] is listed as “no significant change”. Moreover, in the data set with HeLa cells (10.0 μM), the “percentage of apoptotic cells (early apoptotic + late apoptotic)” value came out at 22.26%.

The record behind these values is publication PMC9196629, “Synthesis, Characterization and Antitumor Mechanism Investigation of Heterometallic Ru(Ⅱ)-Re(Ⅰ) Complexes” (Frontiers in Chemistry, 2022).
